Values joined by “and” are separate entries in the source; they are usually repeats but may differ in a detail not shown here. Identical values can stand only once.
Columns and labels:
FIG. 10 = assay: FIG. 10
Description: Table printed on a drawing sheet, FIG. 10
The patent's description of the figure: FIG. 10 is a table of urine PK parameters for Cohort 7 in accordance with Example 4.
First reader's note: Urine PK parameters for Cohort 7 (fed vs fasted, 40 mg); each column is a dosing arm and the rows give summary statistics per parameter.

FIG. 13 = assay: FIG. 13
Text: Table printed on a drawing sheet, FIG. 13
The patent's description of the figure: FIG. 13 is a table of urine PK parameters for Cohorts 8 to 10 on Day 14 of the treatment period in accordance with Example 4.
First reader's note: Per the description these are urine PK parameters for Cohorts 8 to 10 on Day 14; each column is one dose group.

For CONC(=O)Nc1ccc(-c2sc3c(c2CN(C)C)c(=O)n(-c2ccc(OC)nn2)c(=O)n3Cc2c(F)cccc2F)cc1 [Compound 1, N-(4-(1-(2,6-difluorobenzyl)-5-((dimethylamino)methyl)-3-(6-methoxy-3-pyridazinyl)-2,4-dioxo-1,2,3,4-tetrahydrothieno[2,3-d]pyrimidin-6-yl)phenyl)-N′-methoxyurea], the “CLr (L/hr) | Mean” value (FIG. 10) was 6.1047 L/h and 6.7583 L/h, the “Fe (%) | Mean” value (FIG. 10) was 0.919% and 1.963% and the “Ae (0-24) (ng) | Median” value (FIG. 13) was 141057.00 ng. For the same compound, the “CLr (L/hr) | Mean” value (FIG. 13) was 6.4821 L/h and 6.7992 L/h and 6.8776 L/h and the “Fe (%) | Mean” value (FIG. 13) was 1.335% and 1.930% and 1.955%.

Source: patent US11957684B2, “Treatment of heavy menstrual bleeding associated with uterine fibroids” (Sumitomo Pharma Switzerland GmbH, priority 2016, dated 2024)
